Measured values as given in patent US4822635A, “Sweetening with L-aminodicarboxylic acid esters” (General Foods Corporation, priority 1988, dated 1989).
“And” between values parts separate entries of the source, which are not always exact repeats. Equal values may be shown once. One block for each molecule: values may come before it. Where a SMILES comes first, the peptide text is derived from it. The star is where a group is joined. tBu = CC(C)(C)*

Assays:
[1] = Sweetness determination by a panel of experts: aqueous solutions matched to sucrose standard solutions (sucrose equivalence); parameters: key to Sucrose equivalence: weight % sucrose solution of matched sweetness
From the text: A taste procedure for determination of sweetness merely involves the determination of sucrose equivalency. Sucrose equivalence for sweeteners are readily determined. The amount of a sweetener that is equivalent to a given weight percent sucrose can be determined by having a panel of tasters taste solutions of a sweetener at known concentrations and match its sweetness to standard solutions of sucrose.
The following examples further illustrate the invention. In the following examples, the sensory evaluation were obtained by a panel of experts using known weight percent aqueous solutions of the exemplified compounds and were matched to sucrose standard solutions.

[2] = Stability (half life) in buffer solutions at pH 3, 5 and 7 at 50, 75 or 100 °C; type: physicochemical; conditions: for half-life: buffer; for Stability in buffered solutions: buffered solutions at pH 3, 5 and 7; for Stability compared with aspartame: buffered solutions studied, except pH 3 at 100 °C
Experimental: α-L-Aspartyl-2-methylalanine[β(+)Fenchyl]ester (Example 9), α-L-Aspartyl-D-alanine[β(+)Fenchyl]ester, (Example 10) and aspartame L-Aspartyl-L-phenylalanine methyl ester were studied for stability at pH3, 5 and 7 in buffer solutions maintained at 50° C., 75° C., or 100° C., the following results were obtained: […]

[3] = prior art statement; cited from earlier work
[4] = concentration 0.00185 (weight percent aqueous solution)
[5] = concentration 0.0025 (weight percent aqueous solution)
[6] = concentration 0.00375 (weight percent aqueous solution)
[7] = concentration 0.005 (weight percent aqueous solution)
[8] = concentration 0.00692 (so in the source), weight percent aqueous solution
[9] = concentration 0.0075 (weight percent aqueous solution)
[10] = concentration 0.01 (weight percent aqueous solution)
[11] = pH 3, buffer solution, 50 °C, pH 3
[12] = pH 3, buffer solution, 75 °C, pH 3
[13] = pH 3, buffer solution, 100 °C, pH 3
[14] = pH 5, buffer solution, 50 °C, pH 5
[15] = pH 5, buffer solution, 75 °C, pH 5
[16] = pH 5, buffer solution, 100 °C, pH 5
[17] = pH 7, buffer solution, 100 °C, pH 7
[18] = concentration 0.00012 (weight percent aqueous solution)
[19] = concentration 0.00024 (weight percent aqueous solution)
[20] = concentration 0.00047 (weight percent aqueous solution)
[21] = concentration 0.00092 (weight percent aqueous solution)
[22] = concentration 0.010 (weight percent aqueous solution)
[23] = concentration 0.025 (weight percent aqueous solution)
[24] = concentration 0.05 (weight percent aqueous solution)

- half-life [2, 11]: 1540 h
- half-life [2, 12]: 72 h
- half-life [2, 13]: 8.4 h
- half-life [2, 14]: 3600 h
- half-life [2, 15]: 360 h
- half-life [2, 16]: 33 h
- half-life [2, 17]: 67 h
- Stability compared with Example 10 ([2]; buffered solutions): more stable
- Stability in buffered solutions [2]: outstanding stability
- Stability compared with aspartame [2]: better stability
SMILES: CC(C)(NC(=O)[C@@H](N)CC(=O)O)C(=O)OC1C2(C)CCC(C2)C1(C)C (single isomer, unassigned) [Example 9, α-L-Aspartyl-2-methylalanine[β(+)Fenchyl]ester]
- Sucrose equivalence [1, 4]: 5.7%
- Sweetness relative to sucrose [1, 4]: 3100 × Sucrose
- Sucrose equivalence [1, 5]: 6.0% and 4.3% and 4.25%
- Sweetness relative to sucrose [1, 5]: 2400 × Sucrose and 1733 × Sucrose and 1700 × Sucrose
- Sucrose equivalence [1, 6]: 6.0%
- Sweetness relative to sucrose [1, 6]: 1600 × Sucrose
- Sucrose equivalence [1, 7]: 7.37% and 7.0% and 6.0%
- Sweetness relative to sucrose [1, 7]: 1475 × Sucrose and 1400 × Sucrose and 1200 × Sucrose
- Sucrose equivalence [1, 8]: 3.5%
- Sweetness relative to sucrose [1, 8]: 3800 × Sucrose
- Sucrose equivalence [1, 9]: 8.5%
- Sweetness relative to sucrose [1, 9]: 1133 × Sucrose
- Sucrose equivalence [1, 10]: 9.25% and 9.0%
- Sweetness relative to sucrose [1, 10]: 925 × Sucrose and 900 × Sucrose

- half-life [2, 11]: 528 h
- half-life [2, 12]: 31.2 h
- half-life [2, 13]: 3.9 h
- half-life [2, 14]: 3140 h
- half-life [2, 15]: 122 h
- half-life [2, 16]: 14 h
- half-life [2, 17]: 10 h
- Stability in buffered solutions [2]: outstanding stability
- Stability compared with aspartame [2]: better stability
SMILES: C[C@@H](NC(=O)[C@@H](N)CC(=O)O)C(=O)OC1C2(C)CCC(C2)C1(C)C (single isomer, unassigned) [Example 10, α-L-Aspartyl-D-alanine[β(+)Fenchyl]ester]
- Sucrose equivalence [1, 18]: 0.6%
- Sweetness relative to sucrose [1, 18]: 5000 × Sucrose
- Sucrose equivalence [1, 19]: 1.42%
- Sweetness relative to sucrose [1, 19]: 5900 × Sucrose
- Sucrose equivalence [1, 20]: 2.28%
- Sweetness relative to sucrose [1, 20]: 4900 × Sucrose
- Sucrose equivalence [1, 21]: 4.7%
- Sweetness relative to sucrose [1, 21]: 5100 × Sucrose
- Sucrose equivalence [1, 4]: 6.5%
- Sweetness relative to sucrose [1, 4]: 3500 × Sucrose
- Sucrose equivalence [1, 5]: 6.0%
- Sweetness relative to sucrose [1, 5]: 2400 × Sucrose
- Sucrose equivalence [1, 6]: 8.6%
- Sweetness relative to sucrose [1, 6]: 2300 × Sucrose
- Sucrose equivalence [1, 7]: 9.3% and 10.0%
- Sweetness relative to sucrose [1, 7]: 1860 × Sucrose and 2000 × Sucrose
- Sucrose equivalence [1, 9]: 9.0%
- Sweetness relative to sucrose [1, 9]: 1200 × Sucrose
- Sucrose equivalence [1, 10]: 11.0%
- Sweetness relative to sucrose [1, 10]: 1100 × Sucrose

- half-life [2, 12]: 21.6 h
- half-life [2, 13]: 5.3 h
- half-life [2, 15]: 26.4 h
- half-life [2, 16]: 5.3 h
- half-life [2, 17]: < 1 h
- Stability compared with Example 9 and Example 10 ([2]; pH 3, 100 °C, between Example 9 and Example 10): intermediate stability
SMILES: COC(=O)[C@H](Cc1ccccc1)NC(=O)[C@@H](N)CC(=O)O [Aspartame, L-Aspartyl-L-phenylalanine methyl ester, reference compound] (H-Asp-Phe-OMe)

SMILES: C[C@@H](NC(=O)[C@@H](N)CC(=O)O)C(=O)OC1C(C)(C)CCC1(C)C [Example 1, L-Aspartyl-D-alanine(2,2,5,5-tetramethyl-1-cyclopentyl)ester]
- Sucrose equivalence [1, 7]: 2.5
- Sucrose equivalence [1, 22]: 3.7
- Sucrose equivalence [1, 23]: 7.7
- Sucrose equivalence [1, 24]: 8.0

SMILES: CC(C)(NC(=O)[C@@H](N)CC(=O)O)C(=O)OC1C(C)(C)CCC1(C)C [Example 2, N-(L-Aspartyl)-2-methylalanine(2,2,5,5-tetramethyl-1-cyclopentyl)ester]
- Sucrose equivalence [1, 7]: 2.00
- Sucrose equivalence [1, 22]: 3.25
- Sucrose equivalence [1, 23]: 5.75

SMILES: C[C@@H](NC(=O)[C@@H](N)CC(=O)O)C(=O)OC1(C)CCCC1 [Example 6, N-L-Aspartyl-D-alanine (1-methyl-1-cyclopentyl)ester]
- Sucrose equivalence [1, 24]: 2.0
- Sweetness relative to sucrose [1, 24]: 40 × Sucrose

SMILES: CC1CCC(C)C1OC(=O)[C@@H](C)NC(=O)[C@@H](N)CC(=O)O (stereo partly drawn) [Example 7, N-L-Aspartyl-D-alanine(2,5-dimethylcyclopentyl)ester]
- Sucrose equivalence [1, 7]: 1.16
- Sweetness relative to sucrose [1, 7]: 233 × Sucrose
- Sweetness relative to sucrose [1, 10]: 230 × Sucrose
- Sucrose equivalence [1, 22]: 2.3
- Sucrose equivalence [1, 23]: 4.82
- Sweetness relative to sucrose [1, 23]: 193 × Sucrose
- Sucrose equivalence [1, 24]: 7.50
- Sweetness relative to sucrose [1, 24]: 150 × Sucrose

SMILES: CC1CCC(C)C1OC(=O)C1(NC(=O)[C@@H](N)CC(=O)O)CC1 (stereo partly drawn) [L-Aspartyl-1-aminocyclopropyl-1-carboxylicacid, 2,5-dimethyl-1-cyclopentyl ester]
- Sucrose equivalence [1, 7]: 1.0
- Sweetness relative to sucrose [1, 7]: 200 × Sucrose
- Sweetness relative to sucrose [1, 10]: 217 × Sucrose
- Sucrose equivalence [1, 22]: 2.2
- Sucrose equivalence [1, 23]: 3.3
- Sweetness relative to sucrose [1, 23]: 133 × Sucrose

SMILES: CCC(C)(C)OC[C@H](NC(=O)[C@@H](N)CC(=O)O)C(=O)OC [L-aspartyl-O-t-amyl-L-serine methyl ester]
- Sweetness (in words) [3]: significant sweetness

SMILES: COC(=O)[C@H](COC(C)(C)C)NC(=O)[C@@H](N)CC(=O)O [L-aspartyl-O-t-butyl-L-serine methyl ester] (H-Asp-Ser(tBu)-OMe)
- Sweetness (in words) [3]: significant sweetness
